Assay results published in US20240279710A1, “FLUORESCENT PROBES” (TOHOKU TECHNO ARCH CO., LTD., priority 2021, published 2024).

What was measured:
[1] = molecular target: T1, calpain-1 from human erythrocytes (Homo sapiens, UniProt P07384); assay: Fluorescence assay with calpain-1; assay type: biochemical; settings: 10 μM probe, 17.4 U/mL calpain-1, 5 mM CaCl2, 37° C., excitation 475 nm, fluorescence 500-550 nm; for increase in fluorescence intensity 10 minutes after the addition of calpain-1: FIG. 5(b)
T1 construct: calpain-1 from human erythrocytes; purchased Merck Millipore 208713; host or cells: human erythrocytes (natural source)
T1 sequence (P07384 1-714): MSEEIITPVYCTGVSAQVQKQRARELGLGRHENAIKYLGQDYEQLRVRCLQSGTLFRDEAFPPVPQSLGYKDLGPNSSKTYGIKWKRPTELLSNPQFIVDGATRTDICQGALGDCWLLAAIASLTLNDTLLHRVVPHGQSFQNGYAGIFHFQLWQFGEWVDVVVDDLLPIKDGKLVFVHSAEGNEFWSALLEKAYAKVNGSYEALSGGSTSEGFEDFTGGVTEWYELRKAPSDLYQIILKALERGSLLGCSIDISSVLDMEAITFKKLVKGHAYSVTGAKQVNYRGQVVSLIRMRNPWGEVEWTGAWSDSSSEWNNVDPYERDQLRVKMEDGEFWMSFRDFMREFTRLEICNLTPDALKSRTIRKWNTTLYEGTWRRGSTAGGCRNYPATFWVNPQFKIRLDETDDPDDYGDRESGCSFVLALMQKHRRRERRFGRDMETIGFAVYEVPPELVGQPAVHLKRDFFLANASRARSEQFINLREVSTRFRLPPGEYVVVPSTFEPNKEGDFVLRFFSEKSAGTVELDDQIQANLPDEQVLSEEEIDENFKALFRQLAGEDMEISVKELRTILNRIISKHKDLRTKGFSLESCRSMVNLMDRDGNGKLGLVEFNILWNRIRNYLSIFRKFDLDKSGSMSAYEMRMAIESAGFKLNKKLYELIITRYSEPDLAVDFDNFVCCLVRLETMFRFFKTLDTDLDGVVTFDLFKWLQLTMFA
T1 sequence (P04632 1-268 partner): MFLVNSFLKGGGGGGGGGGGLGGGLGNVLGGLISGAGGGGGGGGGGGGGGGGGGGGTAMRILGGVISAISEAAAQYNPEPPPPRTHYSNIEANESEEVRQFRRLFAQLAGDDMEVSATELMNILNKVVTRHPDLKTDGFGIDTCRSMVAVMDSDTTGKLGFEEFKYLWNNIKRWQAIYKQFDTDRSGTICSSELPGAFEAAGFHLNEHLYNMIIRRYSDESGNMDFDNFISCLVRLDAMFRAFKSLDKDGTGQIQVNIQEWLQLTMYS
Description: The fluorescence assays of Compound 19 and Compound 16 with time were performed. Specifically, 17.4 U/mL of calpain-1 and 5 mM CaCl2 were added to a 50 mM TRIS buffer (pH: 7.4, 2 mM EGTA, 2 mM DTE) containing 10 μM of each of the synthesized fluorescent probes to perform an enzyme reaction at 37° C. Each of the compounds to which calpain-1 and CaCl2 were not added was similarly subjected as a negative control to the measurement.
The fluorescence assays of Compounds 16 to 36 were similarly performed. 50 Units per milliliter (Compounds 16 and 19 to 25) or 17.4 U/mL (Compounds 16 to 18 and 26 to 36) of calpain-1 and 5 mM CaCl2 were added to a 50 mM TRIS buffer (pH: 7.4, 2 mM EGTA, 2 mM DTE) containing 10 μM of each of the synthesized fluorescent probes to perform an enzyme reaction at 37° C.
Next, similar fluorescence assays of Compounds 37, 42, 45, 48, 51, 53, 55, 57, and 59 with calpain-1 were performed. Specifically, 17.4 U/mL of calpain-1 and 5 mM CaCl2 were added to a 50 mM TRIS buffer (pH: 7.4, 2 mM EGTA, 2 mM DTE) containing 10 μM of each of the synthesized fluorescent probes to perform an enzyme reaction at 37° C. Each of the compounds to which calpain-1 was not added was used as a control.
To evaluate an influence of a R^12-L-O— group on the reactivity of each of compounds having the same amino acids with calpain-1, the fluorescence assays of Compounds 37 to 66 with calpain-1 were performed in accordance with the above-mentioned method. Specifically, 17.4 U/mL of calpain-1 and 5 mM CaCl2 were added to a 50 mM TRIS buffer (pH: 7.4, 2 mM EGTA, 2 mM DTE) containing 10 μM of each of the synthesized fluorescent probes to perform an enzyme reaction at 37° C., followed by the measurement of an increase in fluorescence intensity of each of the compounds 10 minutes after the addition of calpain-1.

SH-SY5Y cells = assay: Live cell imaging of calpain activity in SH-SY5Y cells; assay type: cell-based; settings: 5 μM probe, 10 minutes incubation, confocal microscope; FIG. 12
Description: Whether or not the improvement in enzymatic reactivity between the compound of the present invention and a calpain confirmed by the above-mentioned experiment remained the same even in a cell was verified. Calpain activity imaging in SH-SY5Y cells was performed on each of Compounds 16 and 19. Specifically, the SH-SY5Y cells (American Type Culture Collection, VA, USA) were cultured in a mixed medium of Dulbecco's modified eagle medium and Ham's F-12 medium (DMEM/F-12; Thermo Fisher Scientific, Inc.) (containing 10% fetal bovine serum (FBS; Thermo Fisher Scientific, Inc., MA, USA) and 100 U/mL penicillin-100 μg/mL streptomycin (PS; Thermo Fisher Scientific, Inc.)) under the conditions of 37° C. and 5% CO2-95% air. 6×10^4 to 8×10^4 Cells/well of the cells were seeded in a multiwell plate (μ-Plate 96 Well; ibidi, Grafelfing, Germany) coated with poly-D-lysine (Thermo Fisher Scientific, Inc.) and laminin (BD Biosciences, CA, USA), and were preincubated in a culture solution. Immediately after the removal of the culture solution in the wells, 200 μL of an assay solution (a culture solution containing a 5 μM probe) was added thereto, and the cells were incubated under the conditions of 37° C. and 5% CO2-95% air. 10 Minutes after that, a bright field image and a fluorescence image were taken with a confocal microscope (LSM 710, Carl Zeiss AG, Oberkochen, Germany).
Calpain activity imaging in SH-SY5Y cells was performed on each of Compounds 20 to 23, Compound 38, and Compound 56 in the same manner as in Example 9. In the case of each of Compounds 20 to 23 and Compound 38, a bright field image and a fluorescence image were taken after 30 minutes of incubation of the cells, and in the case of Compound 56, such images were taken after 20 minutes of incubation thereof.

calpain = assay: Rabbit NMDA injury model, ocular fundus imaging; assay type: in vivo; settings: for staining of nerve cells with HMRG in ocular fundus: 30, 45 and 60 minutes after probe into the eye (Compound 19 18.3 μM 19 μL; Compound 16 20 μM 19 μl or 38 μl)
Description: Black Dutch rabbits were each subjected to general anesthesia with a mixed liquid of ketamine and xylazine. N-Methyl-D-aspartate (NMDA) (12 mM, 50 μL) or PBS was administered into an eye of the rabbit. 9 Hours after that, the rabbit was anesthetized with a mixed liquid of ketamine and xylazine again, and Compound 19 (18.3 μM, 19 μL), Compound 16 (20 μM, 19 μl), or Compound 16 (20 μM, 38 μl) was administered into the eye. Images of an ocular fundus were taken with Mirante (a confocal scanning diode laser ophthalmoscope manufactured by Nidek Co., Ltd.) before the administration of each of the compounds and after the lapse of a predetermined time from the administration.

Structure (SMILES) | increase in fluorescence intensity 10 minutes after the addition of calpain-1 [1] | change in fluorescence intensity with time by calpain-1 ([1]; FIG. 4) | calpain activity imaging in SH-SY5Y cells (SH-SY5Y cells) | number of HMRG-positive cells in PBS rabbits compared to NMDA rabbits (calpain; Compound 19 (19 μL) and Compound 16 (38 μl), FIG. 23) | staining of nerve cells with HMRG in ocular fundus (calpain; rabbits administered NMDA (12 mM, 50 μL)) | staining of nerve cells with HMRG in ocular fundus (calpain; rabbits administered PBS)
CCC(=O)N[C@@H](CC(C)C)C(=O)N[C@@H](CCSC)C(=O)Nc1ccc2c(c1)Oc1cc(N)ccc1C21OCc2ccccc21 (stereo partly shown) [Compound 17] | reduced in fluorescence intensity as compared to Compound 16 | – | – | – | – | –
CSCC[C@H](NC(=O)[C@H](CC(C)C)NC(C)=O)C(=O)Nc1ccc2c(c1)Oc1cc(N)ccc1C21OCc2ccccc21 (stereo partly shown) [Compound 16, reference compound] | – | functioned as a fluorescent probe for calpain-1 | enabled the observation of calpain activity in the SH-SY5Y cells | significantly reduced | many nerve cells were clearly stained with HMRG | substantially no staining of the nerve cells with HMRG
CCCC(=O)N[C@@H](CC(C)C)C(=O)N[C@@H](CCSC)C(=O)Nc1ccc2c(c1)Oc1cc(N)ccc1C21OCc2ccccc21 (stereo partly shown) [Compound 18] | reduced in fluorescence intensity as compared to Compound 16 | – | – | – | – | –
